According to ChEMBL document CHEMBL1150603, “Ecteinascidins 770 and 786 from the Thai tunicate Ecteinascidia thurstoni” (J Nat Prod, 2002):
≈ marks a conversion by molar mass, not a printed value.

Key:
[1] = tested on: Mycobacterium tuberculosis; experiment: Antitubercular activity against Mycobacterium tuberculosis H37Ra; assay type: functional
KB = experiment: Cytotoxicity against human KB cells; assay type: functional, cell-based
[2] = Cytotoxicity against breast cancer cells; assay type: functional, cell-based; conditions: Cancer cell lines

SMILES	MIC [1] [µM]	IC50 (KB) [nM]	IC50 [2] [nM]
COc1cc2c(cc1O)CCN[C@]21C[S+]([O-])[C@@H]2c3c(OC(C)=O)c(C)c4c(c3[C@H](COC1=O)N1[C@@H]2[C@@H]2c3c(cc(C)c(OC)c3O)C[C@@H]([C@@H]1C#N)N2C)OCO4 (stereo partly specified) [ECTEINASCIDIN 786]	2 (≈ 1.57 µg/mL)	0.15	7.6
COc1cc2c(cc1O)CCN[C@]21CS[C@@H]2c3c(OC(C)=O)c(C)c4c(c3[C@H](COC1=O)N1[C@@H]2[C@H]2c3c(cc(C)c(OC)c3O)C[C@@H]([C@@H]1C#N)N2C)OCO4 [ECTEINASCIDIN 770]	0.13 (≈ 0.1 µg/mL)	0.034	2.5
